The values that follow come from ChEMBL document CHEMBL1201862, “PubChem BioAssay data set” (2004).

Test systems include A498; COLO 205; DU-145; HCT-116; HCT-15; HOP-92; HT-29; IGROV-1; KM12; MDA-MB-435; MOLT-4; Malme-3M; NCI-H226; NCI/ADR-RES; RPMI-8226; SF-268; SK-MEL-5; SNB-19; SR; UACC-62.
Common to all, as to experiment: NCI anticancer screen, dose series, 48 h

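Interpolation was linear, between the two tested concentrations surrounding the appropriate level; five concentrations were tested over 48 hours in 96-well plates. GI50 = concentration required for 50% inhibition of growth.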 The source made the active and inactive calls. Rule as the data show it: active = GI50 up to about 1.1 µM and inactive = higher. A value given as a limit tells only on which side of the number the result lay.

On to `CN(C)C(=S)N1C(=S)N(c2ccccc2)C(=N/c2ccccc2)/C1=N\c1ccccc1`, for which the GI50 in the assay with A498 is > 100 µM (inactive); with COLO 205, > 100 µM (inactive); with DU-145, > 100 µM (inactive); with HCT-116, > 100 µM (inactive); in the assay on HCT-15, more than 100 µM; in the assay on HOP-92 it was > 100 µM (inactive). For the same molecule, the GI50 in the assay on HT-29, in the assay on IGROV-1, in the assay with KM12, with MDA-MB-435, in the assay with MOLT-4 and with Malme-3M was > 100 µM (inactive) throughout. The GI50 in the assay with NCI-H226, with NCI/ADR-RES, in the assay with RPMI-8226, in the assay on SF-268, in the assay with SK-MEL-5 and in the assay with SNB-19 was > 100 µM (inactive) throughout. Also, the GI50 in the assay with SR and in the assay with UACC-62 was > 100 µM (inactive) in each case.
Regarding `CC1C(C#N)(C#N)C(C#N)=C(N)C1(Cl)[N+](=O)[O-]` (stereo not given), the GI50 is 17.4 µM (inactive) in the assay with A498; 4.9 µM (inactive) in the assay on COLO 205; 16.7 µM (inactive) in the assay on DU-145; 7.19 µM (inactive) with HCT-116; 3.39 µM in the assay on HCT-15; 2.08 µM (inactive) in the assay on HOP-92. Also, the GI50 in the assay on HT-29 is 9.04 µM (inactive); in the assay on IGROV-1, 7.45 µM (inactive); in the assay with KM12, 18.7 µM (inactive); with MDA-MB-435, 16.7 µM (inactive); with MOLT-4, 1.72 µM (inactive); in the assay with Malme-3M, 5.71 µM (inactive). The GI50 is 17.1 µM (inactive) in the assay with NCI-H226; 16 µM (inactive) in the assay with NCI/ADR-RES; 11.2 µM (inactive) in the assay on RPMI-8226; 14.9 µM (inactive) with SF-268; 12.1 µM (inactive) with SK-MEL-5; 19.3 µM (inactive) in the assay on SNB-19. The GI50 is 5.01 µM (inactive) in the assay with SR and 11.4 µM (inactive) in the assay with UACC-62.
For the molecule `C=C1C[C@@H](O)[C@@H](Br)C(C)(C)[C@]12CCC(C)(Cl)C(Br)C2` (stereo not given in full), the GI50 in the assay with A498 was > 46.9 µM (inactive); in the assay on COLO 205, 4.86 µM (inactive); with DU-145, 62.4 µM (inactive); with HCT-116, 32.3 µM (inactive); in the assay with HCT-15, 35.1 µM; with HOP-92, 24.2 µM (inactive). Besides, the GI50 in the assay on HT-29 was 29 µM (inactive); with IGROV-1, 7.93 µM (inactive); in the assay on KM12 it was 0.929 µM (active); in the assay with MDA-MB-435, 23.9 µM (inactive); in the assay on MOLT-4, 36.4 µM (inactive); with Malme-3M, 22 µM (inactive). Moreover, the GI50 was 20.9 µM (inactive) in the assay on NCI-H226; 21.4 µM (inactive) in the assay with NCI/ADR-RES; 34 µM (inactive) in the assay on RPMI-8226; 32 µM (inactive) with SF-268; 7.71 µM (inactive) in the assay with SK-MEL-5; > 31.6 µM (inactive) in the assay on SNB-19. Further, the GI50 is 40.8 µM (inactive) in the assay with SR and 40.5 µM (inactive) in the assay with UACC-62.
On to `C[C@H](CCC(=O)O)[C@H]1CC[C@@]2(C)[C@@H]3C(=O)C[C@H]4C(C)(C)[C@@H](O)CC[C@]4(C)[C@H]3C(=O)C[C@]12C`, for which the GI50 was > 100 µM (inactive) with A498; > 100 µM (inactive) with COLO 205; > 100 µM (inactive) in the assay on DU-145; > 100 µM (inactive) with HCT-116; more than 100 µM in the assay on HCT-15; > 100 µM (inactive) in the assay with HOP-92. In addition, the GI50 in the assay on HT-29, with IGROV-1, in the assay with KM12, in the assay with MDA-MB-435, in the assay on MOLT-4 and with Malme-3M was > 100 µM (inactive) in each case. In addition, the GI50 with NCI-H226, with NCI/ADR-RES, in the assay with RPMI-8226, in the assay with SF-268, in the assay with SK-MEL-5 and in the assay on SNB-19 was > 100 µM (inactive) in each case. Besides, the GI50 in the assay on SR and in the assay on UACC-62 was > 100 µM (inactive) each time.
Turning to `O=C1c2ccccc2-c2[nH]c3cn[nH]c(=O)c3c21`, the GI50 with A498 was 33.5 µM (inactive); in the assay with COLO 205, 89.5 µM (inactive); in the assay with DU-145 it was > 100 µM (inactive); in the assay on HCT-116, 38.6 µM (inactive); in the assay with HCT-15, 82.6 µM; with HOP-92 it was 16.4 µM (inactive). For the same molecule, the GI50 is > 100 µM (inactive) in the assay on HT-29; 23.1 µM (inactive) in the assay on IGROV-1; > 100 µM (inactive) with KM12; 48.6 µM (inactive) in the assay with MDA-MB-435; > 100 µM (inactive) with MOLT-4; > 100 µM (inactive) in the assay on Malme-3M. The GI50 with NCI-H226 is 78.7 µM (inactive); in the assay with NCI/ADR-RES it was > 100 µM (inactive); in the assay with RPMI-8226, 92.9 µM (inactive); in the assay with SF-268, 99.1 µM (inactive); in the assay on SK-MEL-5, > 100 µM (inactive); in the assay on SNB-19, > 100 µM (inactive). The GI50 in the assay on SR was 45 µM (inactive); in the assay with UACC-62 it was 45.3 µM (inactive).
